Measurements as given in patent US11998010B2, “Pesticidal mixtures” (BASF SE, priority 2018, dated 2024).

System: Alternaria solani
Assay: Microtest: activity against early blight caused by Alternaria solani (micro titer plate, absorption at 405 nm)
Assay type: cell-based
Conditions: single compound, 7 days after inoculation, 0 = growth as untreated control, 100 = no growth
Description: The stock solutions were mixed according to the ratio, pipetted onto a micro titer plate (MTP) and diluted with water to the stated concentrations. A spore suspension of Alternaria solani in an aqueous biomalt or yeast-bactopeptone-glycerine or DOB solution was then added. The plates were placed in a water vapor-saturated chamber at a temperature of 18° C. Using an ab-sorption photometer, the MTPs were measured at 405 nm 7 days after the inoculation. The measured parameters were compared to the growth of the active compound-free control variant (100%) and the fungus-free and active compound-free blank value to determine the relative growth in % of the pathogens in the respective active compounds. These percentages were converted into efficacies. […] The expected efficacies of active compound mixtures were determined using Colby's formula [R. S. Colby, “Calculating synergistic and antagonistic responses of herbicide combinations”, Weeds 15, 20-22 (1967)] and compared with the observed efficacies.

| SMILES | Observed efficacy (0.25 ppm) | Observed efficacy (1 ppm) | Observed efficacy (4 ppm) | Observed efficacy (0.016 ppm) |
| --- | --- | --- | --- | --- |
| N#Cc1ccc(Oc2ccc(C(F)(F)C(O)(Cn3ncnc3S)c3ccc(F)cc3F)nc2)cc1 (stereo not shown) [Compound I, 4-[[6-[2-(2,4-difluorophenyl)-1,1-difluoro-2-hydroxy-3-(5-sulfanyl-1,2,4-triazol-1-yl)propyl]-3-pyridyl]oxy]benzonitrile] | 7 | 8 | 30 |  |
| Cc1cccc(-n2nnn(C)c2=O)c1COc1ccn(-c2ccc(Cl)cc2)n1 [Compound II, 1-[2-[[1-(4-chlorophenyl)pyrazol-3-yl]oxymethyl]-3-methyl-phenyl]-4-methyl-tetrazol-5-one, reference compound] |  |  |  | 11 |
